Source: ChEMBL document CHEMBL1201862, “PubChem BioAssay data set” (2004)
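Exposure lasted 48 hours, with cells grown in 96-well plates and compounds tested at five concentrations. Here, GI50 denotes the concentration required for 50% inhibition of growth.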 Activity calls are given as the source filed them. Rule as the data show it: active = GI50 up to about 1.1 µM and inactive = higher.

What was measured:
Assay in all cases: NCI-60 cell line screen, 48 h
[1] = test system: NCI-H23
[2] = test system: 786-0
[3] = test system: TK-10
[4] = test system: KM12
[5] = test system: SK-MEL-5
[6] = test system: EKVX
[7] = test system: HCT-15
[8] = test system: HCT-116
[9] = test system: LOX IMVI
[10] = test system: SF-539
[11] = test system: SK-OV-3
[12] = test system: Hs-578T
[13] = test system: U-251
[14] = test system: OVCAR-4
[15] = test system: NCI/ADR-RES
[16] = test system: SN12C
[17] = test system: HT-29
[18] = test system: MOLT-4
[19] = test system: PC-3
[20] = test system: NCI-H460
[21] = test system: NCI-H226
[22] = test system: SNB-19
[23] = test system: SW-620
[24] = test system: T47D
[25] = test system: A549
[26] = test system: CCRF-CEM
[27] = test system: SF-268
[28] = test system: MCF7
[29] = test system: Malme-3M
[30] = test system: DU-145
[31] = test system: IGROV-1
[32] = test system: HOP-92
[33] = test system: UACC-62
[34] = test system: M14
[35] = test system: NCI-H522
[36] = test system: K562
[37] = test system: RXF 393
[38] = test system: RPMI-8226
[39] = test system: OVCAR-8
[40] = test system: UACC-257
[41] = test system: SK-MEL-28
[42] = test system: UO-31
[43] = test system: OVCAR-3
[44] = test system: HOP-62
[45] = test system: CAKI-1
[46] = test system: HCC 2998
[47] = test system: MDA-N
[48] = test system: SK-MEL-2
[49] = test system: BT-549
[50] = test system: ACHN
[51] = test system: SF-295
[52] = test system: COLO 205
[53] = test system: MDA-MB-231
[54] = test system: SR
[55] = test system: OVCAR-5
[56] = test system: A498
[57] = test system: MDA-MB-435
[58] = test system: HL-60
[59] = test system: SNB-75

In the case of O=[N+]([O-])c1cc(C2(N3CCCCC3)CCCCC2)sc1Br, the GI50 [1] is reported as 11.9 µM (inactive), the GI50 [2] is reported as 3.94 µM (inactive) and the GI50 [3] is reported as 2.39 µM (inactive). The GI50 [4] was 6.49 µM (inactive), the GI50 [5] was 5.04 µM (inactive) and the GI50 [6] was 9.16 µM (inactive). The GI50 [7] was 5.02 µM, the GI50 [8] was 11.7 µM (inactive) and the GI50 [9] was 2.82 µM (inactive). For the same molecule, the GI50 [10] was 2.52 µM (inactive), the GI50 [11] was 16.3 µM (inactive) and the GI50 [12] was 7.05 µM (inactive). For the same molecule, the GI50 [13] was 6.01 µM (inactive), the GI50 [14] was 13 µM (inactive) and the GI50 [15] was 3.09 µM (inactive). For the same molecule, the GI50 [16] was 5.15 µM (inactive), the GI50 [17] was 3.87 µM (inactive) and the GI50 [18] was 1.8 µM (inactive). For the same molecule, the GI50 [19] was 4.06 µM (inactive), the GI50 [20] was 14.4 µM (inactive) and the GI50 [21] was 3.33 µM (inactive). The GI50 [22] was 14.1 µM (inactive), the GI50 [23] was 4.09 µM (inactive) and the GI50 [24] was 1.87 µM (inactive). For the same molecule, the GI50 [25] was 17.1 µM (inactive), the GI50 [26] was 2.08 µM (inactive) and the GI50 [27] was 7.5 µM (inactive). For the same molecule, the GI50 [28] was 2.83 µM (inactive), the GI50 [29] was 3.44 µM (inactive) and the GI50 [30] was 3.18 µM (inactive). For the same molecule, the GI50 [31] was 11.4 µM (inactive), the GI50 [32] was 8.81 µM (inactive) and the GI50 [33] was 11.3 µM (inactive). For the same molecule, the GI50 [34] was 7.69 µM (inactive), the GI50 [35] was 2.14 µM (inactive) and the GI50 [36] was 2.92 µM (inactive). The GI50 [37] was 3.66 µM (inactive), the GI50 [38] was 1.74 µM (inactive) and the GI50 [39] was 6.31 µM (inactive). The GI50 [40] was 2.04 µM (inactive), the GI50 [41] was 5.41 µM (inactive) and the GI50 [42] was 12.1 µM (inactive). The GI50 [43] was 2.72 µM (inactive), the GI50 [44] was 6 µM (inactive) and the GI50 [45] was 6 µM (inactive). For the same molecule, the GI50 [46] was 1.74 µM (inactive), the GI50 [47] was 6.41 µM (inactive) and the GI50 [48] was 7.06 µM (inactive). The GI50 [49] was 6.82 µM (inactive), the GI50 [50] was 3.98 µM (inactive) and the GI50 [51] was 15.3 µM (inactive). The GI50 [52] was 3.82 µM (inactive), the GI50 [53] was 11 µM (inactive) and the GI50 [54] was 2.99 µM (inactive). The GI50 [55] was 19.5 µM (inactive), the GI50 [56] was 5.92 µM (inactive) and the GI50 [57] was 4.78 µM (inactive). For the same molecule, the GI50 [58] was 2.34 µM (inactive).

CC(=O)OC1OC(c2ccoc2)C[C@@]12C1CCC3O[C@]3(C)[C@]1(C)C[C@H](OC(C)=O)[C@H]2C (stereo not given in full) was tested, and the GI50 [1] was 74.1 µM (inactive), the GI50 [2] was > 75 µM (inactive) and the GI50 [3] was > 75 µM (inactive). The GI50 [4] was > 75 µM (inactive), the GI50 [5] was > 75 µM (inactive) and the GI50 [59] was > 75 µM (inactive). The GI50 [6] was > 75 µM (inactive), the GI50 [7] was greater than 75 µM and the GI50 [8] was > 75 µM (inactive). For the same molecule, the GI50 [9] was > 75 µM (inactive), the GI50 [10] was > 75 µM (inactive) and the GI50 [11] was > 75 µM (inactive). For the same molecule, the GI50 [12] was > 75 µM (inactive), the GI50 [13] was > 75 µM (inactive) and the GI50 [14] was 59.2 µM (inactive). The GI50 [15] was > 75 µM (inactive), the GI50 [16] was > 75 µM (inactive) and the GI50 [17] was > 75 µM (inactive). The GI50 [18] was > 75 µM (inactive), the GI50 [19] was 44.7 µM (inactive) and the GI50 [20] was 58.3 µM (inactive). For the same molecule, the GI50 [21] was > 75 µM (inactive), the GI50 [22] was > 75 µM (inactive) and the GI50 [23] was > 75 µM (inactive). The GI50 [24] was 35.2 µM (inactive), the GI50 [25] was > 75 µM (inactive) and the GI50 [26] was 38.1 µM (inactive). The GI50 [27] was > 75 µM (inactive), the GI50 [28] was 44.9 µM (inactive) and the GI50 [30] was > 75 µM (inactive). The GI50 [31] was > 75 µM (inactive), the GI50 [32] was 72.8 µM (inactive) and the GI50 [33] was 51.3 µM (inactive). For the same molecule, the GI50 [34] was > 75 µM (inactive), the GI50 [35] was > 75 µM (inactive) and the GI50 [36] was > 75 µM (inactive). The GI50 [37] was > 75 µM (inactive), the GI50 [38] was 44 µM (inactive) and the GI50 [39] was > 75 µM (inactive). For the same molecule, the GI50 [40] was > 75 µM (inactive), the GI50 [41] was > 75 µM (inactive) and the GI50 [42] was 70.8 µM (inactive). For the same molecule, the GI50 [43] was > 75 µM (inactive), the GI50 [45] was > 75 µM (inactive) and the GI50 [46] was > 75 µM (inactive). For the same molecule, the GI50 [47] was > 75 µM (inactive), the GI50 [48] was > 75 µM (inactive) and the GI50 [49] was > 75 µM (inactive). For the same molecule, the GI50 [50] was > 75 µM (inactive), the GI50 [51] was > 75 µM (inactive) and the GI50 [52] was > 75 µM (inactive). For the same molecule, the GI50 [53] was 45.9 µM (inactive), the GI50 [54] was > 75 µM (inactive) and the GI50 [55] was > 75 µM (inactive). The GI50 [56] was > 75 µM (inactive), the GI50 [57] was > 75 µM (inactive) and the GI50 [58] was 42.9 µM (inactive).
